Assay results from the METLIN SMRT retention time set (Domingo-Almenara et al. 2019).

Assay: gradient 5% acetonitrile 3 min, to 50% in 2 min, to 85% in 15 min, held 3 min, 100 µL/min
Settings: column: Zorbax Extend-C18 2.1 x 50 mm; eluents: water / acetonitrile, 0.1% formic acid
Method in brief: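 Each retention time is based on an adduct peak selected computationally and verified by manual inspection. Measurements used HPLC–quadrupole time-of-flight mass spectrometry in positive and negative ionization mode on mixtures of ~100 pure standards. Chromatography ran on a Zorbax Extend-C18 column (2.1 × 50 mm, 1.8 μm) at 100 μL/min with water and acetonitrile, each containing 0.1% formic acid, and dead and dwell volumes of 40 μL and 900 μL.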

Row | RP-LC retention time [s] | SMILES
1 | 828 | O=S(=O)(Nc1ccc(N2CCOCC2)cc1)c1ccc(-c2nnc(C3CCC3)o2)o1
2 | 903 | Cc1cnc(C(=O)N2CCCC2c2nc(CCOCC3CCCC3)no2)cn1 (stereo not given)
3 | 703 | Cc1ccc(-c2nnc(-c3nc(NCc4ccccn4)c4ccccc4n3)o2)cc1
4 | 791 | CCOC(=O)C1CCN(C(=O)c2cn(-c3cc(N4CCSCC4)ncn3)cn2)CC1
5 | 754 | CCCCn1cc(S(=O)(=O)NCc2ccccc2F)c2cccnc21
6 | 820 | CCOC(=O)c1[nH]c(C)c(C(=O)C(C)N(CCOC)C(=O)c2ccccc2Cl)c1C (stereo not given)
7 | 756 | COc1cccc(S(=O)(=O)N2CCC(c3cc(N)on3)CC2)c1
8 | 948 | O=C(Cn1cnc2c(sc3nc(-c4ccccc4)ccc32)c1=O)Nc1ccc2c(c1)OCCO2
9 | 679 | COCc1noc([C@@H]2CC(F)(F)CN2C(=O)c2conc2C)n1
10 | 945 | Cc1cc(=O)n(CC(=O)NCc2ccc3c(c2)OCO3)c(N2CCCCC2)n1
11 | 900 | CC(C)(C)c1nnc(-c2ccc3c(c2)OCO3)o1
12 | 990 | CC(C)CNC(=O)CCc1nc2ccccc2n(CC(=O)N2CCCc3ccccc32)c1=O
13 | 892 | CCOC(=O)c1c(C)c(CCC(=O)NC2CCCCC2)n(C)c1C
14 | 757 | O=C(NCCC1CCN(C(=O)Nc2ccc(F)cc2F)CC1)c1ccsc1
15 | 1070 | CC1Oc2ccc(-c3csc(NC(=O)COc4ccc(Cl)cc4)n3)cc2N(C)C1=O (stereo not given)
16 | 863 | NS(=O)(=O)c1cccnc1Nc1ccc(Cl)cc1
17 | 718 | Cc1cc(=O)n(CC(=O)Nc2ccccc2Cl)c(N2CCCCC2)n1
18 | 841 | Cc1c(Cl)cccc1Nc1ncccc1C(=O)O
19 | 744 | CCc1nc(-c2ccc(OC3CCN(CCc4ccccc4)C3)cc2)no1 (stereo not given)
20 | 1080 | CCCNC(=O)c1cn(CCC)nc1S(=O)(=O)N1CCN(c2ccccc2OCC)CC1
21 | 576 | CC(=O)N1CCc2ccccc2C1C(=O)N1CCN(c2ccc(F)cc2)CC1 (stereo not given)
22 | 1050 | O=S(=O)(c1cc(-c2nnc(C3CCCC3)o2)co1)N1CCCCCC1
23 | 641 | CCCN1CCN(C(=O)CCc2c(C)c(C(=O)OCC)n(C)c2C)CC1

Row | RP-LC retention time [s] | SMILES
24 | 919 | CCCCSc1ncnc2[nH]ncc12
25 | 735 | Cn1c(=O)c(C(=O)NCc2ccccc2)nc2cccnc21
26 | 553 | CN(C)c1cc(N2CCCC(NC(=O)c3cccnc3)C2)ncn1 (stereo not given)
27 | 672 | CCC(C)NC(=O)C1CCN(S(=O)(=O)c2c(C)[nH]c(C)c2C(=O)N2CCCCC2)CC1 (stereo not given)
28 | 1220 | COc1cc(O)c(C(=O)/C=C/c2ccccc2)c(OC)c1
29 | 658 | Cc1nnc2ccc(NC(=O)Nc3ccccc3F)cn12
30 | 886 | COC(=O)COc1cc(-c2cccc(Cl)c2)nc2ccc(NC(=O)c3ccco3)cc12
31 | 755 | Cc1ccc2c(NCc3ccccc3)c(-c3nc(C4CC4)no3)cnc2n1
32 | 1190 | CCc1nc2cc(-c3noc(-c4ccc(F)cc4)n3)ccc2o1
33 | 1090 | COc1ccc(C2(C(=O)N3CCC4(CC3)C(OC)CN4c3cccc(F)c3)CC2)cc1 (stereo not given)
34 | 850 | O=C(Nc1ccc2c(c1)OCCO2)C(=O)c1cn(CC(=O)N2CCOCC2)c2ccccc12
35 | 829 | CCN1C(=O)C(C)(C(=O)NCc2cccc(OC)c2)Oc2cccnc21 (stereo not given)
36 | 800 | CCCCc1ccc(NC(=O)CSc2ccc(N3CCCC(C(=O)NC4CC4)C3)nn2)cc1 (stereo not given)
37 | 824 | Cc1ccc(Cn2c(=O)n(CCNC(=O)Cc3ccsc3)c3ncccc32)cc1
38 | 685 | CCOC(=O)C1CCN(c2cc3c(cc2NC(=O)NCC(C)C)n(C)c(=O)n3C)CC1
39 | 892 | Cn1c(C(=O)NCc2ccccc2)cc2sccc21
40 | 795 | CCOC(=O)c1[nH]c(C)c(C(=O)C(C)N(CC)C(=O)c2ccc(OC)cc2)c1C (stereo not given)
41 | 788 | COc1ccc(NC(=O)Cn2cccc(-c3nc(-c4ccc(OC)c(OC)c4)no3)c2=O)c(OC)c1
42 | 591 | CCN1CCN(CCNC(=O)CN2C(=O)C3CCCCN3c3ccc(C(=O)N4CCCC4)cc32)CC1 (stereo not given)
43 | 990 | CCOc1ccc(NC(=O)Cn2cccc2-c2nnc(-c3ccccc3)o2)cc1
44 | 701 | COc1ccc(S(=O)(=O)N2CCN(c3cc(C)c4ccccc4n3)CC2)cc1
45 | 677 | CN1C(=O)C(CC(=O)N2CCCCC2)=C2CCCCC21 (stereo not given)
46 | 999 | Cc1ccc(S(=O)(=O)N2CCC(n3c(-c4ccco4)nc4cccnc43)C2)cc1Cl (stereo not given)

Row | RP-LC retention time [s] | SMILES
47 | 1100 | C=CCN1C(=O)COc2ccc(-c3nc(NC(=O)c4ccc(C)cc4)sc3C)cc21
48 | 851 | CCOC(=O)NC(=O)c1ccsc1NC(=O)c1ccc([N+](=O)[O-])s1
49 | 712 | O=C(Cn1c(=O)oc2ccccc21)N1CCC(c2noc(-c3ccncc3)n2)C1 (stereo not given)
50 | 650 | COc1ccc(N2CCN(C(=O)CCN3C(=O)C4C5C=CC(C5)C4C3=O)CC2)cc1 (stereo not given)
51 | 556 | CC(C)n1c(CN2CCOCC2)nc2ccccc21
52 | 851 | O=C(Cc1csc2nc(-c3ccccc3)cn12)NC1CCCc2ccccc21 (stereo not given)
53 | 789 | CN1c2ccc(Cl)cc2C(=O)NC12CCN(C(=O)NCc1ccccc1)CC2
54 | 694 | CCc1nc2c(c(=O)n1CC(=O)NCc1ccc(C)c(C)c1)CN(Cc1ccccc1)CC2
55 | 750 | COc1ccc(CN2CN=C(Nc3nc(C)c4cccc(OC)c4n3)NC2)cc1
56 | 989 | CCCCn1cc(S(=O)(=O)Nc2ccc(F)cc2C)c2cccnc21
57 | 968 | Cc1ccc(CNC(=O)Cn2nc(C)c3sc(-c4ccccc4)nc3c2=O)cc1C
58 | 638 | NC(=O)CCC(C(=O)O)N1C(=O)C2C3CCC(C3)C2C1=O (stereo not given)
59 | 1090 | CCCc1ccc(S(=O)(=O)N2CCC(C(=O)NCc3csc(-c4ccccc4)n3)CC2)cc1
60 | 646 | COc1ccc(-c2cc3c(=O)n(Cc4noc(CN5CCCC5)n4)ccn3n2)cc1
61 | 1050 | Cc1ccc(Cl)c(Nc2ccccc2C(=O)O)c1Cl
62 | 1070 | CCc1ccc(-c2ccc(=O)n(CCc3nc(-c4ccc5c(c4)OCO5)no3)n2)cc1
63 | 844 | Cc1ccc2nc(NC(=O)CSc3ccc(-n4cccn4)nn3)sc2c1
64 | 1020 | Cc1ccccc1NC(=O)c1csc(-c2cn(C)c3ncccc23)n1
65 | 812 | CN(C)S(=O)(=O)c1ccc(-c2nnc(C(=O)NCc3cccs3)o2)cc1
66 | 801 | CCCCNC(=O)c1nc(Nc2ccccc2)c2ccccc2n1
67 | 1020 | Cc1cccc(-c2noc(CN3N=NC4C(=O)N(c5ccc(F)cc5)C(=O)C43)n2)c1 (stereo not given)
68 | 1290 | CCC(C)(C)NS(=O)(=O)c1cccc(-c2nc(-c3ccc(C)cc3)no2)c1
69 | 671 | C=CCNc1ncnc2ccc(Br)cc12

Row | RP-LC retention time [s] | SMILES
70 | 651 | COC[C@@H]1CN(S(=O)(=O)c2ccc(C)cc2)C[C@H]1c1ccncc1
71 | 917 | O=C1CC(c2noc(C3CCCC3)n2)CN1c1ccccc1 (stereo not given)
72 | 835 | COCCCNC(=O)C1CCN(c2nc3ccc(-c4ccccc4)nc3s2)CC1
73 | 1120 | Cc1ccccc1-n1c(=O)c2sccc2n(Cc2nc(-c3ccc(Br)cc3)no2)c1=O
74 | 947 | O=C(Nc1ccc(F)cc1)N1CCCC1c1nc(-c2ccccc2)no1 (stereo not given)
75 | 797 | CCc1ccc(S(=O)(=O)Nc2cc(-n3c(C)nc4ccccc4c3=O)ccc2F)s1
76 | 1120 | COc1ccc2c(c1)-c1nc(NC(=O)c3cccc(F)c3)sc1CC2
77 | 758 | CCCN(CC1CCOC1)C(=O)Nc1cccc(F)c1C (stereo not given)
78 | 908 | COc1cccc(-c2noc(CN3C(=O)COc4ccccc43)n2)c1OC
79 | 618 | Clc1ccc(-c2nc(N3CCN(c4ccccn4)CC3)c3ccccc3n2)cc1
80 | 1270 | Cc1sc(-c2cc(C(F)(F)F)on2)cc1S(=O)(=O)N1CCCCCC1
81 | 1090 | CCOc1ccccc1NC(=O)CSc1cc(N2CCN(c3ccc(OC)cc3)CC2)ncn1
82 | 795 | Cc1ccccc1C(=O)Nc1ccccc1NC(=O)C1CCC1
83 | 696 | CCN(CC)CCNC(=O)c1nnc(-c2ccc(S(=O)(=O)N3CCC(C)CC3)cc2)o1
84 | 820 | O=C(NCCC1=CCCCC1)C1CCN(C(=O)c2ncn3c2COC(c2ccccc2)C3)CC1 (stereo not given)
85 | 645 | Cc1cnc(C(=O)N2CCC(c3noc(-c4ccncc4)n3)C2)cn1 (stereo not given)
86 | 702 | O=C(NCC1CCCO1)C1CCN(Cc2cc3ccccc3n2Cc2ccc(F)cc2)CC1 (stereo not given)
87 | 626 | Cn1cc(-c2cc3n(n2)CCC(=O)N3CC(=O)NCc2ccccn2)c2ccccc21
88 | 771 | COc1ccccc1NC(=O)N1CCC(CNC(=O)CCSc2ccccc2)CC1
89 | 699 | CCNc1cc(N2CCCC(CCC(=O)Nc3ccc(OCC)cc3)C2)ncn1 (stereo not given)

Row | SMILES | RP-LC retention time [s]
90 | CCCN(CCC)C1Cc2cc(OC)c(OC)cc2C1 | 680
